Reference: article PMC9106665 (Communications Biology, 2022)
Positions count from the first letter of the chain named. In brackets after ≈: the same amount, converted by molar mass. Several values for one entry are separate records, joined by “and”; a condition that tells them apart may be missing. Identical values can stand only once. Like-named read-outs stand apart in the source and are kept apart here.

Legend:
[1] = system: E. coli BL21(DE3) strain overexpressing DfrA5; test: Antibacterial activity (MIC); format: cell-based; settings: Escherichia coli
[2] = biological target: T1, E. coli DHFR (EcDHFR) (Escherichia coli, UniProt P0ABQ4); test: biochemical
T1 construct: E. coli DHFR gene (UniProtKB:P0ABQ4) and dfrA1 gene (UniProtKB:A4GRC7) were synthesized and cloned in pET-41a (+) vector; made in house; host or cells: E. coli BL21(DE3)
Experimental: (§1) The assay was performed at room temperature using the Shimadzu UV/visible spectrophotometer. A standard reaction buffer contained 20 mM TES, pH 7.0, 50 mM KCl, 10 mM β-mercapthoethanol, 0.5 mM EDTA, and 1 mg/ml BSA. […] All measurements were performed in triplicate, from at least two independent experiments.

[3] = biological target: T2, DfrA1 (Escherichia coli, UniProt P00382); format: binding, E. coli
T2 construct: dfrA1 gene (UniProtKB:A4GRC7) were synthesized and cloned in pET-41a (+) vector; made in house; host or cells: E. coli BL21(DE3)
T2 sequence (P00382 1-157): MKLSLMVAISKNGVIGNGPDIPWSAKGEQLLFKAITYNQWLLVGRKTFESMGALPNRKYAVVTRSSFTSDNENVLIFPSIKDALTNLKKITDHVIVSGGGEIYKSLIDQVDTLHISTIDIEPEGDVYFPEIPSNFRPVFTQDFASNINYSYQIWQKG
Experimental: (§2) In all, 200 µg of purified enzyme was preincubated for 18 h without and with a 10× molar excess of the ligand(s) (NADPH, TMP or PLA) in 20 mM Hepes 7.5, 100 mM KCl, 5% glycerol, ±2.0% DMSO and 2 mM DTT buffer. […] Changes in intrinsic fluorescence intensity (measured ratio of absorbance at 350 nm over 330 nm) from tryptophan residues were used to calculate derivatives using the evaluation features provided by the Tycho instrument.

[4] = system: E. coli BL21(DE3) strain overexpressing DfrA1; test: Antibacterial activity (MIC); format: cell-based; settings: Escherichia coli
[5] = system: E. coli BL21(DE3) strain overexpressing EcDHFR wt; test: Antibacterial activity (MIC); format: cell-based; settings: Escherichia coli, w/o SMX
[6] = biological target: T3, EcDHFR (Escherichia coli, UniProt P0ABQ4); format: binding
T3 construct: E. coli DHFR gene (UniProtKB:P0ABQ4) and dfrA1 gene (UniProtKB:A4GRC7) were synthesized and cloned in pET-41a (+) vector; made in house; host or cells: E. coli BL21(DE3)
Experimental: as §2

[7] = system: E. coli BW25113; test: microbe, parasite or virus in culture; format: cell-based; settings: for MIC: Escherichia coli, 80% inhibition of growth
Experimental: (§3) Preparation, handling of cultures and the antibiotic susceptibility testing was performed according to CLSI guidelines. […] The compounds at the highest concentrations alone and paired with Sulfamethoxazole (1:19 w/w ratio) were then added to the first well before being serially diluted (2-fold) throughout the plate, leaving the last well with broth only (negative growth control). Next, 50 μl of the inoculum was added to each well.

[8] = system: E. coli JW0451 acrB mutant strain; test: microbe, parasite or virus in culture; format: cell-based; settings: for MIC: w/o SMX, 80% inhibition of growth, 18 to 20 hours, 37°C
Experimental: as §3

[9] = biological target: T4, EcDHFR D27E/L28Q (Escherichia coli, UniProt P0ABQ4, D27E/L28Q); test: Enzyme inhibition assay (NADPH oxidation, 340 nm); format: biochemical
T4 construct: using E. coli DHFR template previously synthesized by GeneScript; made in house; host or cells: E. coli BL21(DE3)
T4 sequence (P0ABQ4 1-159 D27E/L28Q): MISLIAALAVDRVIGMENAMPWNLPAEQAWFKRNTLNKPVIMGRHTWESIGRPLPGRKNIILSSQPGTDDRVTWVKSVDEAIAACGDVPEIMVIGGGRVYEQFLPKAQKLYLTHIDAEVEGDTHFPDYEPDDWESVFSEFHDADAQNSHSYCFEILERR
Experimental: as §1

[10] = biological target: T5, EcDHFR D27E (Escherichia coli, UniProt P0ABQ4, D27E); test: Enzyme inhibition assay (NADPH oxidation, 340 nm); format: biochemical
T5 construct: using E. coli DHFR template previously synthesized by GeneScript; made in house; host or cells: E. coli BL21(DE3)
T5 sequence (P0ABQ4 1-159 D27E): T4 sequence (P0ABQ4 1-159 D27E/L28Q) with Q28L
Experimental: as §1

[11] = biological target: T6, EcDHFR L28Q (Escherichia coli, UniProt P0ABQ4, L28Q); test: Enzyme inhibition assay (NADPH oxidation, 340 nm); format: biochemical
T6 construct: using E. coli DHFR template previously synthesized by GeneScript; made in house; host or cells: E. coli BL21(DE3)
T6 sequence (P0ABQ4 1-159 L28Q): T4 sequence (P0ABQ4 1-159 D27E/L28Q) with E27D
Experimental: as §1

[12] = biological target: T7, DfrA5 (Escherichia coli, UniProt P11731); test: biochemical; parameters: species or system E. coli
Experimental: as §1

[13] = system: DfrA1 and DfrA5; format: biochemical, E. coli; settings: range over DfrA1 and DfrA5
Experimental: as §1

[14] = biological target: T7, DfrA5; format: binding, E. coli; parameters: E. coli dfrA5 gene (UniProtKB:A0A4Y6L037) was synthesized and cloned in pET-24a (+) vector with the same restriction sites; 6xHis tag (C); made in house; host or cells: E. coli BL21(DE3)
Experimental: In all, 200 µg of purified enzyme was preincubated for 18 h without and with a 10× molar excess of the ligand(s) (NADPH, TMP or PLA) in 20 mM Hepes 7.5, 100 mM KCl, 5% glycerol, ±2.0% DMSO and 2 mM DTT buffer. […] Changes in intrinsic fluorescence intensity (measured ratio of absorbance at 350 nm over 330 nm) from tryptophan residues were used to calculate derivatives using the evaluation features provided by the Tycho instrument. The inflection temperature (Ti) as a marker of protein structural integrity was determined by the first derivative of the signal (ratio of 350 nm/330 nm).

[15] = remark limiting MST studies
[16] = system: DfrA5; format: biochemical, E. coli
From the text: (§4) using a nonlinear regression method in GraphPad Prism 9.2.0 software. To determine the turnover number (kcat) using the same model, the enzyme concentration (based on the protein concentration determined by Bradford assay) was constrained to a constant value and analyzed by the following equation (Eq. 3):3 Y=Et×kcat×X/(Km+X)

[17] = system: DfrA1; format: biochemical, E. coli
From the text: as §4

[18] = biological target: T4, EcDHFR D27E/L28Q; test: Steady-state kinetic measurements; format: biochemical; settings: varied substrate 1 to 200 µM, 25 °C
From the text: as §4

[19] = biological target: T5, EcDHFR D27E; test: Steady-state kinetic measurements; format: biochemical; settings: varied substrate 1 to 200 µM, 25 °C
From the text: as §4

[20] = biological target: T6, EcDHFR L28Q; test: Steady-state kinetic measurements; format: biochemical; settings: varied substrate 1 to 200 µM, 25 °C
From the text: as §4

[21] = biological target: T3, EcDHFR; test: biochemical; format: binding
[22] = biological target: T7, DfrA5; test: biochemical; format: binding, E. coli
[23] = biological target: T2, DfrA1; test: biochemical; format: binding, E. coli
[24] = binary complex, 10× molar excess of ligand

With `CCc1nc(N)nc(N)c1C#CC(C)c1cc(-c2ccc(C(N)=O)cc2)ccc1Cl` (centres unmarked) [UCP1228] the MIC ([1]; w/ SMX (1:19)) was 20 µg/mL (≈ 47.6 µM), the MIC ([1]; w/o SMX) was greater than 20 µg/mL and the Ki [2] was 2.73 ± 0.09 nM. For the same compound, the Ti [3, 24] was 55.4 ± 1.7 °C, the “Δ (Ti shift vs apo)” value [3, 24] was 5.6 °C and the Ti ([3]; ternary complex, +NADPH) was 66.5 ± 3.3 °C. For the same compound, the “Δ (Ti shift vs apo)” value ([3]; ternary complex, +NADPH) was 16.7 °C, the MIC ([4]; w/ SMX (1:19)) was 20 µg/mL (≈ 47.6 µM) and the MIC ([4]; w/o SMX) was greater than 20 µg/mL. For the same compound, the MIC [5] was 20 µg/mL (≈ 47.6 µM), the “Ti 1” value [6, 24] was 65.5 ± 4.6 °C and the “Ti 2” value [6, 24] was 76.5 ± 2.5 °C. The “Δ1 (Ti shift vs apo)” value [6, 24] was 15.9 °C, the “Δ2 (Ti shift vs apo)” value [6, 24] was 16.3 °C and the “Ti 1” value ([6]; ternary complex, +NADPH) was 64.3 ± 0.1 °C. For the same compound, the “Ti 2” value ([6]; ternary complex, +NADPH) was 75.7 ± 1.6 °C, the “Δ1 (Ti shift vs apo)” value ([6]; ternary complex, +NADPH) was 14.7 °C and the “Δ2 (Ti shift vs apo)” value ([6]; ternary complex, +NADPH) was 15.5 °C. For the same compound, the “Fold difference in MIC” value ([7]; BW25113 w/o SMX vs w/ SMX) was 16, the MIC ([7]; BW25113, w/ SMX (1:19)) was 0.625 µg/mL (≈ 1.49 µM) and the MIC ([7]; BW25113, w/o SMX, 18 to 20 hours, 37°C) was 10 µg/mL (≈ 23.8 µM). For the same compound, the “Fold difference in MIC” value ([8]; BW25113 w/o SMX vs JW0451 w/o SMX) was 8, the MIC ([8]; Escherichia coli) was 1.25 µg/mL (≈ 2.98 µM) and the MIC [8] was 0.625 µg/mL (≈ 1.49 µM). For the same compound, the Ki [9] was 189 ± 5.36 nM, the “fold loss in affinities relative to EcDHFR” value ([9]; combinatorial mutant D27E/L28Q) was 69 fold and the Ki [10] was 11.8 ± 0.4 nM. The “fold increase in Ki over EcDHFR” value ([10]; D27E substitution) was 4 fold, the Ki [11] was 10.5 ± 0.69 nM and the Ki [12] was 20.1 ± 0.39 nM. The “fold loss of activity against DfrA1 and DfrA5 compared to EcDHFR” value [13] was 10–14 fold, the “Δ (Ti shift vs apo)” value [14, 24] was 3.7 °C and the Ti ([14]; ternary complex, +NADPH) was 77.3 ± 4.7 °C. The “Δ (Ti shift vs apo)” value ([14]; ternary complex, +NADPH) was 11 °C and the solubility [15] was “low”.
For `NC(=O)C1=CN([C@@H]2O[C@H](COP(=O)(O)OP(=O)(O)OC[C@H]3O[C@@H](n4cnc5c(N)ncnc54)[C@H](OP(=O)(O)O)[C@@H]3O)[C@@H](O)[C@H]2O)C=CC1` [NADPH], the Ti [3, 24] was 56.5 ± 0.8 °C, the “Δ (Ti shift vs apo)” value [3, 24] was 6.7 °C and the “Ti 1” value [6, 24] was 53.8 ± 0.4 °C. For the same compound, the “Ti 2” value [6, 24] was 63.1 ± 1.3 °C, the “Δ1 (Ti shift vs apo)” value [6, 24] was 4.2 °C and the “Δ2 (Ti shift vs apo)” value [6, 24] was 2.9 °C. For the same compound, the “fold increase in KM compared to EcDHFR” value [16] was 3 fold, the “fold increase in KM compared to EcDHFR” value [17] was 2 fold and the Km [18] was 11.1 ± 1.6 µM. For the same compound, the kcat [18] was 3.8 ± 0.2 s⁻¹, the Km [19] was 5.8 ± 0.9 µM and the kcat [19] was 5.9 ± 0.3 s⁻¹. For the same compound, the Km [20] was 7.6 ± 1.3 µM, the kcat [20] was 4.4 ± 0.2 s⁻¹ and the Kd ([21]; EcDHFR apo) was 771 ± 145 nM. For the same compound, the Kd ([21]; EcDHFR apo form, Fig. S5a titration) was 661 nM, the Kd ([21]; EcDHFR:TMP (preincubated with 1 µM TMP), titrant NADPH) was 8 nM and 8.1 nM and the “Fold change in KD” value ([21]; NADPH KD ± Trimethoprim) was 95.2 ± 50.3. The Kd ([22]; DfrA5:TMP, titrant NADPH) was 1540 ± 380 nM, the Kd ([22]; DfrA5:UCP1228 (100 µM UCP1228), titrant NADPH) was 459 ± 157 nM and the Kd ([22]; DfrA5 apo) was 7470 ± 1670 nM. It also gave a Kd ([22]; DfrA5 apo form (Fig. S8)) of 6840 nM, a Kd ([22]; DfrA5 apo, series NADPH KD ± UCP1228) of 6840 ± 1610 nM and a Kd ([22]; DfrA5 preincubated with 100 µM UCP1228, titrant NADPH (Fig. S8)) of 450 nM. For the same compound, the “Fold change in KD” value ([22]; NADPH KD ± Trimethoprim) was 5 and 4.9 ± 1.6, the “Fold change in KD” value ([22]; NADPH KD ± UCP1228) was 15 and 14.9 ± 6.2 and the Kd ([23]; KD, DfrA1:TMP, titrant NADPH) was 430 ± 95 nM. For the same compound, the Kd ([23]; KD, DfrA1:UCP1228 (100 µM UCP1228), titrant NADPH) was 289 ± 51 nM, the Kd ([23]; KD, DfrA1 apo) was 1650 ± 230 nM and the Kd ([23]; KD, DfrA1 apo, series NADPH KD ± UCP1228) was 1040 ± 106 nM. The Kd ([23]; Kd, DfrA1 apo form (Fig. S8)) was 1040 ± 110 nM, the Kd ([23]; Kd, DfrA1 preincubated with 100 µM UCP1228, titrant NADPH (Fig. S8)) was 290 nM and the “Fold change in KD” value ([23]; NADPH KD ± Trimethoprim) was 4 and 3.8 ± 1.0. For the same compound, the “Fold change in KD” value ([23]; NADPH KD ± UCP1228) was 4 and 3.6 ± 0.7, the Ti [14, 24] was 69.2 ± 0.5 °C and the “Δ (Ti shift vs apo)” value [14, 24] was 2.9 °C.
